Data on 23 molecules can be found in PubChem BioAssay (NCI).

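Dose response: 5 concentrations. Exposure: 48 h. Format: 96-well plates. Endpoint: linear interpolation; highest concentration if not reached. At the GI50, growth is halved. TGI: total growth inhibition.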

The test system of the first experiment is SN12C renal. The experiment is described as follows: NCI anticancer screen, dose series, 48 h.
The molecule `Fc1cccc(Cl)c1C1SCc2nc3ccccc3n21` (configuration not stated) showed a TGI of more than 100 µM.

In the case of `CC(=O)N(CCN)CCN`, the TGI is more than 10 µM.

In turn, `COC(=O)c1nc(NN)[nH]c(=O)c1CCCCCc1c(C(=O)OC)[nH]c(NN)cc1=O` had a TGI of more than 100 µM.

On to `CCc1ccccc1NC(=O)C(=O)C(C(=O)c1ccc(OC)cc1)c1ccc(OC)cc1` (configuration not stated), for which the TGI was more than 100 µM.

In turn, `C/C(=N/N(C=O)C[n+]1ccccc1)C(CN(CC(C)C)CC(C)C)C(=O)Nc1ccc(C)cc1C` (configuration not stated) displayed a TGI of more than 100 µM.

`CSc1nc2c(c(O)c(C)c(=O)n2C2OC(COC(C)=O)C(OC(C)=O)C(OC(C)=O)C2OC(C)=O)c(=O)n1C` (configuration not stated) registered a TGI of more than 100 µM.

With `Cc1nc2c(n1CC(C)(C)C)C(=O)c1ccccc1C2=O`, the TGI was more than 100 µM.

In the case of `COc1ccc(C(C2=C(C)C(=O)c3ccccc3C2=O)c2ccc(C(C)C)cc(=O)c2O)cc1` (configuration not stated), the TGI is 8.4 µM.

In turn, `CC(C)N(C(=O)C12C3C4C1C1C2C3C41C(O)C(C)(C)C)C(C)C` (configuration not stated) came in with a TGI of more than 50 µM.

Turning to `Cc1c(C)c2cc3c(=O)ccoc3c(C)c2oc1=O`, the TGI is more than 100 µM.

A further experiment deals with CAKI-1 renal. Description: NCI anticancer screen, dose series, 48 h.
With `COc1ccc(C2C(Cl)C(=O)N2n2cnc3ccccc3c2=O)cc1OC` (configuration not stated), the TGI is more than 100 µM.

In turn, `Nc1nc2c(ncn2Cc2ccccc2CCO)c(=O)[nH]1` returned a TGI of more than 100 µM.

Molecule `CCC1(Br)C(=O)NC(=O)N(C2CC(O)C(CO)O2)C1N=[N+]=[N-]` (configuration not stated) showed a TGI of more than 100 µM.

The molecule `O=[N+]([O-])c1ccc(N=Nc2c(O)[nH]c3ccc([N+](=O)[O-])cc23)cc1` yielded a TGI of more than 100 µM.

In turn, `CC12CC3(C)CC(C)(C1)CC(N=[N+]=[N-])(C2)C3` had a TGI of more than 100 µM.

In the case of `N=C(N)SCc1cn2ccccc2n1`, the TGI was more than 100 µM.

`Clc1ccc([O][In]([O]c2ccc(Cl)cn2)[O]c2ccc(Cl)cn2)nc1`: the GI50 was more than 100 µM and the TGI is more than 100 µM.

`Fc1cccc(Cl)c1C1SCc2nc3ccccc3n21` (configuration not stated): the TGI is more than 100 µM.

`COc1cc2nncc(Sc3cnnc4ccccc34)c2cc1OC`: the TGI was more than 100 µM.

Molecule `COC(=O)C1=CCON(c2ccccc2)C1c1ccccc1` (configuration not stated) displayed a TGI of more than 100 µM.

For `CC(=O)N(CCN)CCN`, the TGI is more than 10 µM.

The molecule `Cc1cc(O)c2c(c1)C(O)(c1ccc3c(c1O)C(=O)c1c(O)cc(C)cc1C3(O)C1OC(CO)C(O)C(O)C1O)c1cccc(O)c1C2=O` (configuration not stated) yielded a TGI of 31.7 µM.

Molecule `COC(=O)c1nc(NN)[nH]c(=O)c1CCCCCc1c(C(=O)OC)[nH]c(NN)cc1=O` returned a TGI of more than 100 µM.

As to `CCc1ccccc1NC(=O)C(=O)C(C(=O)c1ccc(OC)cc1)c1ccc(OC)cc1` (configuration not stated), the TGI was more than 100 µM.

As to `C/C(=N/N(C=O)C[n+]1ccccc1)C(CN(CC(C)C)CC(C)C)C(=O)Nc1ccc(C)cc1C` (configuration not stated), the TGI is more than 100 µM.

Take `O=C(c1ccccc1)c1c(CC(O)c2cccnc2)n(C(=O)c2ccccc2)c2ccccc12` (configuration not stated): the TGI was determined as 70.6 µM.

Take `CSc1nc2c(c(O)c(C)c(=O)n2C2OC(COC(C)=O)C(OC(C)=O)C(OC(C)=O)C2OC(C)=O)c(=O)n1C` (configuration not stated): the TGI was more than 100 µM.

Take `COc1ccc(C(C2=C(C)C(=O)c3ccccc3C2=O)c2ccc(C(C)C)cc(=O)c2O)cc1` (configuration not stated): the TGI was 7.91 µM.

As to `CC(C)N(C(=O)C12C3C4C1C1C2C3C41C(O)C(C)(C)C)C(C)C` (configuration not stated), the TGI was more than 50 µM.

The next experiment deals with UACC-257 melanoma. The experiment is described as follows: NCI anticancer screen, dose series, 48 h.
`O=C1c2ccccc2N2OC3(N4CCCC4)CCCC3C12c1ccccc1` (configuration not stated) gave a TGI of more than 100 µM.

For `COc1ccc(C2C(Cl)C(=O)N2n2cnc3ccccc3c2=O)cc1OC` (configuration not stated), the TGI is more than 100 µM.

Consider `CC(C)=CCC12Cc3ccc(O)cc3C(C(C)CN1)C2C` (configuration not stated), for which the TGI was more than 100 µM.

In turn, `CCC1(Br)C(=O)NC(=O)N(C2CC(O)C(CO)O2)C1N=[N+]=[N-]` (configuration not stated) returned a TGI of more than 100 µM.

For the molecule `O=[N+]([O-])c1ccc(N=Nc2c(O)[nH]c3ccc([N+](=O)[O-])cc23)cc1`, the TGI was found to be 59.7 µM.

`CC12CC3(C)CC(C)(C1)CC(N=[N+]=[N-])(C2)C3` yielded a TGI of more than 100 µM.

`N=C(N)SCc1cn2ccccc2n1`: the TGI is more than 100 µM.

With `Clc1ccc([O][In]([O]c2ccc(Cl)cn2)[O]c2ccc(Cl)cn2)nc1`, the GI50 was more than 100 µM and the TGI was more than 100 µM.

Regarding `Fc1cccc(Cl)c1C1SCc2nc3ccccc3n21` (configuration not stated), the TGI was found to be 72.7 µM.

In turn, `COc1cc2nncc(Sc3cnnc4ccccc34)c2cc1OC` registered a TGI of 68 µM.

For `CC(=O)N(CCN)CCN`, the TGI is more than 10 µM.

For `Cc1cc(O)c2c(c1)C(O)(c1ccc3c(c1O)C(=O)c1c(O)cc(C)cc1C3(O)C1OC(CO)C(O)C(O)C1O)c1cccc(O)c1C2=O` (configuration not stated), the TGI turned out to be 28.7 µM.

Regarding `COC(=O)c1nc(NN)[nH]c(=O)c1CCCCCc1c(C(=O)OC)[nH]c(NN)cc1=O`, the TGI was more than 100 µM.

As to `CCc1ccccc1NC(=O)C(=O)C(C(=O)c1ccc(OC)cc1)c1ccc(OC)cc1` (configuration not stated), the TGI was more than 100 µM.

With `C/C(=N/N(C=O)C[n+]1ccccc1)C(CN(CC(C)C)CC(C)C)C(=O)Nc1ccc(C)cc1C` (configuration not stated), the TGI was more than 100 µM.

The molecule `O=C(c1ccccc1)c1c(CC(O)c2cccnc2)n(C(=O)c2ccccc2)c2ccccc12` (configuration not stated) yielded a TGI of 42 µM.

`CSc1nc2c(c(O)c(C)c(=O)n2C2OC(COC(C)=O)C(OC(C)=O)C(OC(C)=O)C2OC(C)=O)c(=O)n1C` (configuration not stated) came in with a TGI of more than 100 µM.

Turning to `Cc1nc2c(n1CC(C)(C)C)C(=O)c1ccccc1C2=O`, the TGI was more than 100 µM.

On to `Cc1c(C)c2cc3c(=O)ccoc3c(C)c2oc1=O`, for which the TGI was more than 100 µM.

A further experiment relates to SK-MEL-28 melanoma. The experiment is described as follows: NCI anticancer screen, dose series, 48 h.
Regarding `O=C1c2ccccc2N2OC3(N4CCCC4)CCCC3C12c1ccccc1` (configuration not stated), the TGI is more than 100 µM.

In turn, `COc1ccc(C2C(Cl)C(=O)N2n2cnc3ccccc3c2=O)cc1OC` (configuration not stated) came in with a TGI of more than 100 µM.

With `Nc1nc2c(ncn2Cc2ccccc2CCO)c(=O)[nH]1`, the TGI is more than 100 µM.

The molecule `CC(C)=CCC12Cc3ccc(O)cc3C(C(C)CN1)C2C` (configuration not stated) yielded a TGI of more than 100 µM.

`CCC1(Br)C(=O)NC(=O)N(C2CC(O)C(CO)O2)C1N=[N+]=[N-]` (configuration not stated) registered a TGI of more than 100 µM.

`O=[N+]([O-])c1ccc(N=Nc2c(O)[nH]c3ccc([N+](=O)[O-])cc23)cc1` showed a TGI of 47.4 µM.

`CC12CC3(C)CC(C)(C1)CC(N=[N+]=[N-])(C2)C3` came in with a TGI of more than 100 µM.

Molecule `N=C(N)SCc1cn2ccccc2n1` returned a TGI of more than 100 µM.

As for `Clc1ccc([O][In]([O]c2ccc(Cl)cn2)[O]c2ccc(Cl)cn2)nc1`, the GI50 was more than 100 µM and the TGI was more than 100 µM.

The molecule `COc1cc2nncc(Sc3cnnc4ccccc34)c2cc1OC` came in with a TGI of 60.9 µM.

`COC(=O)C1=CCON(c2ccccc2)C1c1ccccc1` (configuration not stated) had a TGI of more than 100 µM.

Take `CC(=O)N(CCN)CCN`: the TGI was more than 10 µM.

As to `Cc1cc(O)c2c(c1)C(O)(c1ccc3c(c1O)C(=O)c1c(O)cc(C)cc1C3(O)C1OC(CO)C(O)C(O)C1O)c1cccc(O)c1C2=O` (configuration not stated), the TGI is 28.9 µM.

`COC(=O)c1nc(NN)[nH]c(=O)c1CCCCCc1c(C(=O)OC)[nH]c(NN)cc1=O` gave a TGI of more than 100 µM.

With `C/C(=N/N(C=O)C[n+]1ccccc1)C(CN(CC(C)C)CC(C)C)C(=O)Nc1ccc(C)cc1C` (configuration not stated), the TGI was more than 100 µM.

Molecule `O=C(c1ccccc1)c1c(CC(O)c2cccnc2)n(C(=O)c2ccccc2)c2ccccc12` (configuration not stated) gave a TGI of 31.5 µM.

In the case of `CSc1nc2c(c(O)c(C)c(=O)n2C2OC(COC(C)=O)C(OC(C)=O)C(OC(C)=O)C2OC(C)=O)c(=O)n1C` (configuration not stated), the TGI was more than 100 µM.

For the molecule `Cc1nc2c(n1CC(C)(C)C)C(=O)c1ccccc1C2=O`, the TGI is more than 100 µM.

`CC(C)N(C(=O)C12C3C4C1C1C2C3C41C(O)C(C)(C)C)C(C)C` (configuration not stated) returned a TGI of more than 50 µM.

The molecule `Cc1c(C)c2cc3c(=O)ccoc3c(C)c2oc1=O` returned a TGI of more than 100 µM.

The next experiment has as its system SNB-75 CNS. Description: NCI anticancer screen, dose series, 48 h.
`O=C1c2ccccc2N2OC3(N4CCCC4)CCCC3C12c1ccccc1` (configuration not stated) registered a TGI of more than 100 µM.

For the molecule `COc1ccc(C2C(Cl)C(=O)N2n2cnc3ccccc3c2=O)cc1OC` (configuration not stated), the TGI worked out at 84.7 µM.

In turn, `Nc1nc2c(ncn2Cc2ccccc2CCO)c(=O)[nH]1` registered a TGI of more than 100 µM.

`CC(C)=CCC12Cc3ccc(O)cc3C(C(C)CN1)C2C` (configuration not stated): the TGI is more than 100 µM.

The molecule `CCC1(Br)C(=O)NC(=O)N(C2CC(O)C(CO)O2)C1N=[N+]=[N-]` (configuration not stated) yielded a TGI of more than 100 µM.

For the molecule `O=[N+]([O-])c1ccc(N=Nc2c(O)[nH]c3ccc([N+](=O)[O-])cc23)cc1`, the TGI is more than 100 µM.

As to `CC12CC3(C)CC(C)(C1)CC(N=[N+]=[N-])(C2)C3`, the TGI is more than 100 µM.

Regarding `N=C(N)SCc1cn2ccccc2n1`, the TGI was more than 100 µM.

With `Clc1ccc([O][In]([O]c2ccc(Cl)cn2)[O]c2ccc(Cl)cn2)nc1`, the GI50 is more than 100 µM and the TGI was more than 100 µM.

In turn, `Fc1cccc(Cl)c1C1SCc2nc3ccccc3n21` (configuration not stated) had a TGI of more than 100 µM.

In turn, `COC(=O)C1=CCON(c2ccccc2)C1c1ccccc1` (configuration not stated) returned a TGI of more than 100 µM.

As to `CC(=O)N(CCN)CCN`, the TGI was more than 100 µM.

In turn, `Cc1cc(O)c2c(c1)C(O)(c1ccc3c(c1O)C(=O)c1c(O)cc(C)cc1C3(O)C1OC(CO)C(O)C(O)C1O)c1cccc(O)c1C2=O` (configuration not stated) registered a TGI of 27.5 µM.

Take `COC(=O)c1nc(NN)[nH]c(=O)c1CCCCCc1c(C(=O)OC)[nH]c(NN)cc1=O`: the TGI is more than 100 µM.

As for `O=C(c1ccccc1)c1c(CC(O)c2cccnc2)n(C(=O)c2ccccc2)c2ccccc12` (configuration not stated), the TGI amounted to 32.4 µM.

As to `CSc1nc2c(c(O)c(C)c(=O)n2C2OC(COC(C)=O)C(OC(C)=O)C(OC(C)=O)C2OC(C)=O)c(=O)n1C` (configuration not stated), the TGI is more than 100 µM.

`Cc1nc2c(n1CC(C)(C)C)C(=O)c1ccccc1C2=O` returned a TGI of more than 100 µM.

With `COc1ccc(C(C2=C(C)C(=O)c3ccccc3C2=O)c2ccc(C(C)C)cc(=O)c2O)cc1` (configuration not stated), the TGI is 6.47 µM.

`CC(C)N(C(=O)C12C3C4C1C1C2C3C41C(O)C(C)(C)C)C(C)C` (configuration not stated) came in with a TGI of more than 50 µM.

`Cc1c(C)c2cc3c(=O)ccoc3c(C)c2oc1=O`: the TGI was 85.2 µM.
